Data: PubChem BioAssay (NCI)
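Assay format: 96-well plates, 48-hour exposure. GI50 is the concentration that inhibits growth by half. TGI marks complete inhibition of growth.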

Columns and labels:
Assay in all cases: NCI tumour cell line growth inhibition, 48 h
HCC-2998 colon = system: HCC-2998 colon
OVCAR-4 ovarian = system: OVCAR-4 ovarian
ACHN renal = system: ACHN renal
LOX IMVI melanoma = system: LOX IMVI melanoma
MCF7 breast = system: MCF7 breast
OVCAR-8 ovarian = system: OVCAR-8 ovarian
UACC-62 melanoma = system: UACC-62 melanoma
SK-MEL-2 melanoma = system: SK-MEL-2 melanoma
K-562 leukemia = system: K-562 leukemia
SNB-19 CNS = system: SNB-19 CNS
CCRF-CEM leukemia = system: CCRF-CEM leukemia
UO-31 renal = system: UO-31 renal
EKVX NSCLC = system: EKVX NSCLC
M14 melanoma = system: M14 melanoma
HOP-62 NSCLC = system: HOP-62 NSCLC
CAKI-1 renal = system: CAKI-1 renal
SW-620 colon = system: SW-620 colon
HCT-15 colon = system: HCT-15 colon
DU-145 prostate = system: DU-145 prostate
KM12 colon = system: KM12 colon
IGROV1 ovarian = system: IGROV1 ovarian
OVCAR-3 ovarian = system: OVCAR-3 ovarian
SK-OV-3 ovarian = system: SK-OV-3 ovarian
SF-295 CNS = system: SF-295 CNS
MOLT-4 leukemia = system: MOLT-4 leukemia
UACC-257 melanoma = system: UACC-257 melanoma
BT-549 breast = system: BT-549 breast
NCI-H23 lung = system: NCI-H23 lung
NCI-H460 lung = system: NCI-H460 lung
A549 NSCLC = system: A549 NSCLC
SK-MEL-28 melanoma = system: SK-MEL-28 melanoma
U251 CNS = system: U251 CNS
HOP-92 NSCLC = system: HOP-92 NSCLC
NCI-H522 lung = system: NCI-H522 lung
MDA-MB-435 = system: MDA-MB-435
SF-539 CNS = system: SF-539 CNS
OVCAR-5 ovarian = system: OVCAR-5 ovarian
SNB-75 CNS = system: SNB-75 CNS
TK-10 renal = system: TK-10 renal
SN12C renal = system: SN12C renal
MALME-3M melanoma = system: MALME-3M melanoma
HL-60(TB) leukemia = system: HL-60(TB) leukemia
SK-MEL-5 melanoma = system: SK-MEL-5 melanoma
HCT-116 colon = system: HCT-116 colon
PC-3 prostate = system: PC-3 prostate
A498 renal = system: A498 renal
SF-268 CNS = system: SF-268 CNS
MDA-MB-231 breast = system: MDA-MB-231 breast
SR leukemia = system: SR leukemia
RXF 393 renal = system: RXF 393 renal

## Cc1ccc(C2CC(c3cccc(Nc4ccncc4)c3)=NN2c2cc(Cl)cc(Cl)c2)cc1 (stereo not drawn)
HCC-2998 colon
  GI50: 1.52 µM
  TGI: 2.85 µM
OVCAR-4 ovarian
  GI50: 1.58 µM
  TGI: 3.1 µM
ACHN renal
  GI50: 1.65 µM
  TGI: 3 µM
LOX IMVI melanoma
  GI50: 1.55 µM
  TGI: 2.89 µM
MCF7 breast
  GI50: 1.89 µM
  TGI: 4.1 µM
OVCAR-8 ovarian
  GI50: 2.21 µM
  TGI: 5.24 µM
UACC-62 melanoma
  GI50: 1.77 µM
  TGI: 3.25 µM
SK-MEL-2 melanoma
  GI50: 2 µM
  TGI: 3.99 µM
K-562 leukemia
  GI50: 1.85 µM
  TGI: 4.58 µM
SNB-19 CNS
  GI50: 1.72 µM
  TGI: 3.45 µM
CCRF-CEM leukemia
  GI50: 3.47 µM
  TGI: > 100 µM
UO-31 renal
  GI50: 1.31 µM
  TGI: 2.59 µM
EKVX NSCLC
  GI50: 1.55 µM
  TGI: 2.94 µM
M14 melanoma
  GI50: 1.93 µM
  TGI: 3.99 µM
HOP-62 NSCLC
  GI50: 1.91 µM
  TGI: 4.53 µM
CAKI-1 renal
  GI50: 1.54 µM
  TGI: 3.03 µM
SW-620 colon
  GI50: 1.69 µM
  TGI: 3.26 µM
HCT-15 colon
  GI50: 1.67 µM
  TGI: 3.1 µM
DU-145 prostate
  GI50: 1.9 µM
  TGI: 3.52 µM
KM12 colon
  GI50: 1.65 µM
  TGI: 3.04 µM
IGROV1 ovarian
  GI50: 1.69 µM
  TGI: 3.23 µM
OVCAR-3 ovarian
  GI50: 1.72 µM
  TGI: 3.23 µM
SK-OV-3 ovarian
  GI50: 1.68 µM
  TGI: 3.38 µM
SF-295 CNS
  GI50: 1.72 µM
  TGI: 3.1 µM
MOLT-4 leukemia
  GI50: 1.94 µM
  TGI: 4.44 µM
UACC-257 melanoma
  GI50: 1.88 µM
  TGI: 3.83 µM
BT-549 breast
  GI50: 1.74 µM
  TGI: 3.38 µM
NCI-H23 lung
  GI50: 1.76 µM
  TGI: 3.35 µM
NCI-H460 lung
  GI50: 1.83 µM
  TGI: 3.55 µM
A549 NSCLC
  GI50: 1.78 µM
  TGI: 3.6 µM
SK-MEL-28 melanoma
  GI50: 1.77 µM
  TGI: 3.3 µM
U251 CNS
  GI50: 1.86 µM
  TGI: 3.88 µM
HOP-92 NSCLC
  GI50: 1.37 µM
  TGI: 2.78 µM
NCI-H522 lung
  GI50: 1.73 µM
  TGI: 3.58 µM
MDA-MB-435
  GI50: 1.66 µM
  TGI: 3.11 µM
SF-539 CNS
  GI50: 1.65 µM
  TGI: 3.05 µM
OVCAR-5 ovarian
  GI50: 1.65 µM
  TGI: 3.06 µM
SNB-75 CNS
  GI50: 1.23 µM
  TGI: 2.62 µM
TK-10 renal
  GI50: 1.64 µM
  TGI: 3.07 µM
SN12C renal
  GI50: 1.71 µM
  TGI: 3.24 µM
MALME-3M melanoma
  GI50: 1.67 µM
  TGI: 3.25 µM
HL-60(TB) leukemia
  GI50: 1.83 µM
  TGI: 4.11 µM
SK-MEL-5 melanoma
  GI50: 1.76 µM
  TGI: 3.17 µM
HCT-116 colon
  GI50: 1.85 µM
  TGI: 3.85 µM
PC-3 prostate
  GI50: 1.58 µM
  TGI: 3.2 µM
A498 renal
  GI50: 1.21 µM
  TGI: 2.47 µM

## CN1CCN(CCCOc2ccc3ncnc(Nc4ccc(OCc5cccc(F)c5)c(Cl)c4)c3c2)CC1
HCC-2998 colon
  GI50: 1.7 µM
  TGI: 3.17 µM
OVCAR-4 ovarian
  GI50: 1.57 µM
  TGI: 3.35 µM
ACHN renal
  GI50: 0.639 µM
  TGI: 1.95 µM
LOX IMVI melanoma
  GI50: 1.75 µM
  TGI: 3.23 µM
MCF7 breast
  GI50: 1.5 µM
  TGI: 2.96 µM
UACC-62 melanoma
  GI50: 1.7 µM
  TGI: 3.24 µM
SK-MEL-2 melanoma
  GI50: 2.07 µM
  TGI: 4.04 µM
SNB-19 CNS
  GI50: 1.5 µM
  TGI: 2.87 µM
CCRF-CEM leukemia
  GI50: 1.57 µM
  TGI: 3.53 µM
UO-31 renal
  GI50: 1.18 µM
  TGI: 2.49 µM
EKVX NSCLC
  GI50: 1.14 µM
  TGI: 2.47 µM
SF-268 CNS
  GI50: 1.49 µM
  TGI: 3.15 µM
CAKI-1 renal
  GI50: 1.13 µM
  TGI: 2.34 µM
SW-620 colon
  GI50: 1.73 µM
  TGI: 3.28 µM
MDA-MB-231 breast
  GI50: 1.62 µM
  TGI: 3.1 µM
HCT-15 colon
  GI50: 1.06 µM
  TGI: 2.35 µM
DU-145 prostate
  GI50: 1.1 µM
  TGI: 2.35 µM
KM12 colon
  GI50: 1.73 µM
  TGI: 3.21 µM
IGROV1 ovarian
  GI50: 1.02 µM
  TGI: 2.55 µM
OVCAR-3 ovarian
  GI50: 1.48 µM
  TGI: 2.92 µM
SF-295 CNS
  GI50: 1.77 µM
  TGI: 3.19 µM
BT-549 breast
  GI50: 1.58 µM
  TGI: 3 µM
NCI-H23 lung
  GI50: 1.69 µM
  TGI: 3.2 µM
NCI-H460 lung
  GI50: 1.78 µM
  TGI: 3.38 µM
SK-MEL-28 melanoma
  GI50: 1.72 µM
  TGI: 3.19 µM
HOP-92 NSCLC
  GI50: 1.15 µM
  TGI: 2.54 µM
MDA-MB-435
  GI50: 1.61 µM
  TGI: 3.11 µM
SF-539 CNS
  GI50: 1.67 µM
  TGI: 3.09 µM
OVCAR-5 ovarian
  GI50: 1.6 µM
  TGI: 3.05 µM
SNB-75 CNS
  GI50: 1.38 µM
  TGI: 2.71 µM
TK-10 renal
  GI50: 0.577 µM
  TGI: 2.32 µM
SR leukemia
  GI50: 0.379 µM
  TGI: 1.79 µM
SN12C renal
  GI50: 1.63 µM
  TGI: 3.1 µM
MALME-3M melanoma
  GI50: 1.65 µM
  TGI: 3.23 µM
RXF 393 renal
  GI50: 1.58 µM
  TGI: 3.07 µM
SK-MEL-5 melanoma
  GI50: 1.67 µM
  TGI: 3.04 µM
PC-3 prostate
  GI50: 1.74 µM
  TGI: 3.39 µM
A498 renal
  GI50: 1.13 µM
  TGI: 2.42 µM
